Data taken from patent publication US8785488B2 (Exelixis Patent Company LLC, priority 2009, dated 2014).

What follows are compounds tested against T1, human TGR5 (h-TGR5) (Homo sapiens, UniProt Q8TDU6) (assay: TGR5/CRE-Luciferiase Assay (HEK 293 hTGR5/CRE-Luc cells)). Conditions: h-TGR5 CRE-Luc EC50, Table 1; read-out: CRE-Luc (EC50).
T1 construct: expressed in transfected cells
T1 sequence (Q8TDU6 1-330): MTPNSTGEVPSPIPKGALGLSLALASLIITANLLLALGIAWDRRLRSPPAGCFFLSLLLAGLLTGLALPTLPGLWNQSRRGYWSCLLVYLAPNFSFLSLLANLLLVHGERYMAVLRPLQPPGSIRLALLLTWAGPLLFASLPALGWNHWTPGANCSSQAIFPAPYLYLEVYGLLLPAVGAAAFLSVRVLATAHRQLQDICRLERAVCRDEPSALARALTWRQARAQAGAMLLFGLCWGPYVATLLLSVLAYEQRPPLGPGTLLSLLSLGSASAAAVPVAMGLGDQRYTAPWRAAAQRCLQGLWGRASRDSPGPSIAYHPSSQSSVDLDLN
Assay type: cell-based
How it was run: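 HEK293 cells stably carrying hTGR5 and a CRE-luciferase reporter were exposed to serially diluted compounds (diluted in DMEM with 5% DMSO) for 6 h. Cells were then lysed in luciferase buffer, luminescence was read, and EC50 values were derived from dose-response curves.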

Question: How did the EC50 turn out when `CC(C)(c1ccc(F)c(F)c1)c1cnc(S(=O)(=O)Cc2ccc(F)cc2Cl)n1-c1ccc(F)cc1` [2-{[(2-chloro-4-fluorophenyl)methyl]sulfonyl}-5-[1-(3,4-difluorophenyl)-1-methylethyl]-1-(4-fluorophenyl)-1H-imidazole] was run?
Answer: Its EC50 is 1000 to 10000 nM.

Question: How did the EC50 turn out when `CC(C)(c1ccc(OC(F)(F)F)c(Cl)c1)c1cnc(SCc2ccc(F)cc2Cl)n1-c1ccc(F)cc1` [2-{[(2-chloro-4-fluorophenyl)methyl]thio}-5-(1-{3-chloro-4-[(trifluoromethyl)oxy]phenyl}-1-methylethyl)-1-(4-fluorophenyl)-1H-imidazole] was run?
Answer: Its EC50 is 1000 to 10000 nM.

Question: `CC(C)(c1ccc2c(c1)OCCO2)c1cnc(SCc2ccc(F)cc2Cl)n1-c1ccc(F)cc1` [2-{[(2-chloro-4-fluorophenyl)methyl]thio}-5-[1-(2,3-dihydro-1,4-benzodioxin-6-yl)-1-methylethyl]-1-(4-fluorophenyl)-1H-imidazole] was tested. Which EC50 did it give?
Answer: Its EC50 is less than 100 nM.

Question: How did the EC50 turn out when `CC(C)(c1ccc(Cl)c(Cl)c1)c1cnc(SCc2ccc(F)cc2Cl)n1-c1ccc(F)c(F)c1` [2-{[(2-chloro-4-fluorophenyl)methyl]thio}-5-[1-(3,4-dichlorophenyl)-1-methylethyl]-1-(3,4-difluorophenyl)-1H-imidazole] was run?
Answer: Its EC50 is 100 to 1000 nM.

Question: For `CC(C)(c1ccc(Cl)c(Cl)c1)c1cnc(SCc2ccc(F)cc2Cl)n1-c1cc(F)cc(F)c1` [2-{[(2-chloro-4-fluorophenyl)methyl]thio}-5-[1-(3,4-dichlorophenyl)-1-methylethyl]-1-(3,5-difluorophenyl)-1H-imidazole], which EC50 is on record?
Answer: The EC50 was 100 to 1000 nM.

Question: How did the EC50 turn out when `CC(C)(c1ccc(Cl)c(Cl)c1)c1cnc(SCc2ccc(F)cc2Cl)n1-c1ccc(F)cc1` [2-{[(2-chloro-4-fluorophenyl)methyl]thio}-5-[1-(3,4-dichlorophenyl)-1-methylethyl]-1-(4-fluorophenyl)-1H-imidazole] was run?
Answer: Its EC50 is 100 to 1000 nM.

Question: Which EC50 does the source give for `COc1cc(F)ccc1-n1c(C(C)(C)c2ccc(Cl)c(Cl)c2)cnc1SCc1ccc(F)cc1Cl` [2-{[(2-chloro-4-fluorophenyl)methyl]thio}-5-[1-(3,4-dichlorophenyl)-1-methylethyl]-1-[4-fluoro-2-(methyloxy)phenyl]-1H-imidazole] here?
Answer: The EC50 was 100 to 1000 nM.

Question: How did the EC50 turn out when `CC(C)(c1ccc(Cl)c(Cl)c1)c1cnc(SCc2ccc(F)cc2Cl)n1-c1ccc(F)c(C(F)(F)F)c1` [2-{[(2-chloro-4-fluorophenyl)methyl]thio}-5-[1-(3,4-dichlorophenyl)-1-methylethyl]-1-[4-fluoro-3-(trifluoromethyl)phenyl]-1H-imidazole] was run?
Answer: The EC50 was 1000 to 10000 nM.

Question: `CC(C)(c1ccc(F)c(F)c1)c1cnc(SCc2ccc(F)cc2Cl)n1-c1ccc(F)cc1` [2-{[(2-chloro-4-fluorophenyl)methyl]thio}-5-[1-(3,4-difluorophenyl)-1-methylethyl]-1-(4-fluorophenyl)-1H-imidazole] was tested. Which EC50 did it give?
Answer: The EC50 was 100 to 1000 nM.

Question: With `Fc1ccc(-n2c(Cc3ccc(F)c(F)c3)cnc2SCc2ccc(F)cc2Cl)cc1` [2-{[(2-chloro-4-fluorophenyl)methyl]thio}-5-[(3,4-difluorophenyl)methyl]-1-(4-fluorophenyl)-1H-imidazole] as the compound, how does the EC50 read?
Answer: The EC50 was 100 to 1000 nM.

Question: With `COc1ccc(C(C)(C)c2cnc(SCc3ccc(F)cc3Cl)n2-c2ccc(F)cc2)cc1Cl` [2-{[(2-chloro-4-fluorophenyl)methyl]thio}-5-{1-[3-chloro-4-(methyloxy)phenyl]-1-methylethyl}-1-(4-fluorophenyl)-1H-imidazole] as the compound, how does the EC50 read?
Answer: The EC50 was less than 100 nM.

Question: Which EC50 does the source give for `CC(C)(c1ccc(Cl)c(Cl)c1)c1cnc(COc2ccc(F)cc2Cl)n1-c1ccc(F)cc1` [2-{[(2-chloro-4-fluorophenyl)oxy]methyl}-5-[1-(3,4-dichlorophenyl)-1-methylethyl]-1-(4-fluorophenyl)-1H-imidazole] here?
Answer: Its EC50 is 1000 to 10000 nM.

Question: Which EC50 does the source give for `CC(C)(c1ccc(Cl)c(Cl)c1)c1cnc(CS(=O)(=O)c2ccc(F)cc2Cl)n1-c1ccc(F)cc1` [2-{[(2-chloro-4-fluorophenyl)sulfonyl]methyl}-5-[1-(3,4-dichlorophenyl)-1-methylethyl]-1-(4-fluorophenyl)-1H-imidazole] here?
Answer: Its EC50 is 1000 to 10000 nM.

Question: Which EC50 does the source give for `CC(C)(c1ccc(Cl)c(Cl)c1)c1cnc(S(=O)(=O)Cc2c(F)cccc2Cl)n1-c1ccc(Cl)c(Cl)c1` [2-{[(2-chloro-6-fluorophenyl)methyl]sulfonyl}-1-(3,4-dichlorophenyl)-5-[1-(3,4-dichlorophenyl)-1-methylethyl]-1H-imidazole] here?
Answer: Its EC50 is 1000 to 10000 nM.

Question: With `CC(C)(c1ccc(Cl)c(Cl)c1)c1cnc(S(=O)(=O)Cc2c(F)cccc2Cl)n1-c1ccc(F)cc1F` [2-{[(2-chloro-6-fluorophenyl)methyl]sulfonyl}-5-[1-(3,4-dichlorophenyl)-1-methylethyl]-1-(2,4-difluorophenyl)-1H-imidazole] as the compound, how does the EC50 read?
Answer: The EC50 was 100 to 1000 nM.

Question: Which EC50 does the source give for `CC(C)(c1ccc(Cl)c(Cl)c1)c1cnc(S(=O)(=O)Cc2c(F)cccc2Cl)n1-c1ccc(F)cc1` [2-{[(2-chloro-6-fluorophenyl)methyl]sulfonyl}-5-[1-(3,4-dichlorophenyl)-1-methylethyl]-1-(4-fluorophenyl)-1H-imidazole] here?
Answer: The EC50 was 100 to 1000 nM.

Question: For `CC(C)(c1ccc(Cl)c(Cl)c1)c1cnc(SCc2c(F)cccc2Cl)n1-c1ccc(Cl)c(Cl)c1` [2-{[(2-chloro-6-fluorophenyl)methyl]thio)-1-(3,4-dichlorophenyl)-5-[1-(3,4-dichlorophenyl)-1-methylethyl]-1H-imidazole], which EC50 is on record?
Answer: Its EC50 is 100 to 1000 nM.

Question: How did the EC50 turn out when `CC(C)(c1ccc(Cl)c(Cl)c1)c1cnc(SCc2c(F)cccc2Cl)n1-c1ccc(Cl)cc1Cl` [2-{[(2-chloro-6-fluorophenyl)methyl]thio}-1-(2,4-dichlorophenyl)-5-[1-(3,4-dichlorophenyl)-1-methylethyl]-1H-imidazole] was run?
Answer: Its EC50 is 1000 to 10000 nM.

Question: Which EC50 does the source give for `CC(C)(c1ccc(F)cc1)c1cnc(SCc2c(F)cccc2Cl)n1-c1ccc(F)cc1` [2-{[(2-chloro-6-fluorophenyl)methyl]thio}-1-(4-fluorophenyl)-5-[1-(4-fluorophenyl)-1-methylethyl]-1H-imidazole] here?
Answer: Its EC50 is 100 to 1000 nM.

Question: For `CC(C)(c1ccc(S(C)(=O)=O)cc1)c1cnc(SCc2c(F)cccc2Cl)n1-c1ccc(F)cc1` [2-{[(2-chloro-6-fluorophenyl)methyl]thio}-1-(4-fluorophenyl)-5-{1-methyl-1-[4-(methylsulfonyl)phenyl]ethyl}-1H-imidazole], which EC50 is on record?
Answer: Its EC50 is 100 to 1000 nM.

Question: Which EC50 does the source give for `CC(C)(c1ccc(C(F)(F)F)cc1)c1cnc(SCc2c(F)cccc2Cl)n1-c1ccc(F)cc1` [2-{[(2-chloro-6-fluorophenyl)methyl]thio}-1-(4-fluorophenyl)-5-{1-methyl-1-[4-(trifluoromethyl)phenyl]ethyl}-1H-imidazole] here?
Answer: Its EC50 is 100 to 1000 nM.

Question: For `CC(C)(c1ccc(Cl)c(Cl)c1)c1cnc(SCc2c(F)cccc2Cl)n1C1CCCC1` [2-{[(2-chloro-6-fluorophenyl)methyl]thio}-1-cyclopentyl-5-[1-(3,4-dichlorophenyl)-1-methylethyl]-1H-imidazole], which EC50 is on record?
Answer: The EC50 was 1000 to 10000 nM.

Question: Which EC50 does the source give for `CC(C)(c1ccc2c(c1)OCCO2)c1cnc(SCc2c(F)cccc2Cl)n1-c1ccc(F)cc1` [2-{[(2-chloro-6-fluorophenyl)methyl]thio}-5-[1-(2,3-dihydro-1,4-benzodioxin-6-yl)-1-methylethyl]-1-(4-fluorophenyl)-1H-imidazole] here?
Answer: The EC50 was less than 100 nM.

Question: For `CC(C)n1c(C(C)(C)c2ccc(Cl)c(Cl)c2)cnc1SCc1c(F)cccc1Cl` [2-{[(2-chloro-6-fluorophenyl)methyl]thio}-5-[1-(3,4-dichlorophenyl)-1-methylethyl]-1-(1-methylethyl)-1H-imidazole], which EC50 is on record?
Answer: Its EC50 is 1000 to 10000 nM.

Question: Which EC50 does the source give for `CC(C)(c1ccc(Cl)c(Cl)c1)c1c(-c2ccccc2)nc(SCc2c(F)cccc2Cl)n1-c1ccc(F)cc1` [2-{[(2-chloro-6-fluorophenyl)methyl]thio}-5-[1-(3,4-dichlorophenyl)-1-methylethyl]-1-(4-fluorophenyl)-4-phenyl-1H-imidazole] here?
Answer: Its EC50 is 1000 to 10000 nM.

Question: `CC(C)(c1ccc(Cl)c(Cl)c1)c1cnc(SCc2c(F)cccc2Cl)n1-c1ccc(F)cc1C(F)(F)F` [2-{[(2-chloro-6-fluorophenyl)methyl]thio}-5-[1-(3,4-dichlorophenyl)-1-methylethyl]-1-[4-fluoro-2-(trifluoromethyl)phenyl]-1H-imidazole] was tested. Which EC50 did it give?
Answer: Its EC50 is 1000 to 10000 nM.

Question: With `CC(C)(c1ccc(F)c(F)c1)c1cnc(SCc2c(F)cccc2Cl)n1-c1ccc(F)cc1` [2-{[(2-chloro-6-fluorophenyl)methyl]thio}-5-[1-(3,4-difluorophenyl)-1-methylethyl]-1-(4-fluorophenyl)-1H-imidazole] as the compound, how does the EC50 read?
Answer: Its EC50 is less than 100 nM.

Question: With `CC(C)(c1ccc(Cl)cc1)c1cnc(SCc2c(F)cccc2Cl)n1-c1ccc(F)cc1` [2-{[(2-chloro-6-fluorophenyl)methyl]thio}-5-[1-(4-chlorophenyl)-1-methylethyl]-1-(4-fluorophenyl)-1H-imidazole] as the compound, how does the EC50 read?
Answer: The EC50 was 100 to 1000 nM.

Question: Which EC50 does the source give for `Fc1ccc(-n2c(C(F)(F)c3ccc(Cl)c(Cl)c3)cnc2SCc2c(F)cccc2Cl)cc1` [2-{[(2-chloro-6-fluorophenyl)methyl]thio}-5-[(3,4-dichlorophenyl)(difluoro)methyl]-1-(4-fluorophenyl)-1H-imidazole] here?
Answer: Its EC50 is 1000 to 10000 nM.

Question: With `CC(C)(c1ccc(Cl)c(Cl)c1)c1cnc(COc2c(F)cccc2Cl)n1-c1ccc(F)cc1` [2-{[(2-chloro-6-fluorophenyl)oxy]methyl}-5-[1-(3,4-dichlorophenyl)-1-methylethyl]-1-(4-fluorophenyl)-1H-imidazole] as the compound, how does the EC50 read?
Answer: Its EC50 is 100 to 1000 nM.

Question: With `CC(C)(c1ccc(Cl)c(Cl)c1)c1cnc(S(=O)(=O)Cc2ccc(F)c(Cl)c2)n1-c1ccc(F)cc1` [2-{[(3-chloro-4-fluorophenyl)methyl]sulfonyl}-5-[1-(3,4-dichlorophenyl)-1-methylethyl]-1-(4-fluorophenyl)-1H-imidazole] as the compound, how does the EC50 read?
Answer: Its EC50 is 100 to 1000 nM.
